Measured values from ChEMBL document CHEMBL1201862, “PubChem BioAssay data set” (2004).
Active and inactive are the calls of the source.

Legend:
Cytochrome P450 1A2 = target: T1, Cytochrome P450 1A2 (Homo sapiens, UniProt P05177);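 note: PubChem cytochrome P450 panel assay, CYP1A2 panel member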
T1 sequence (P05177 whole entry): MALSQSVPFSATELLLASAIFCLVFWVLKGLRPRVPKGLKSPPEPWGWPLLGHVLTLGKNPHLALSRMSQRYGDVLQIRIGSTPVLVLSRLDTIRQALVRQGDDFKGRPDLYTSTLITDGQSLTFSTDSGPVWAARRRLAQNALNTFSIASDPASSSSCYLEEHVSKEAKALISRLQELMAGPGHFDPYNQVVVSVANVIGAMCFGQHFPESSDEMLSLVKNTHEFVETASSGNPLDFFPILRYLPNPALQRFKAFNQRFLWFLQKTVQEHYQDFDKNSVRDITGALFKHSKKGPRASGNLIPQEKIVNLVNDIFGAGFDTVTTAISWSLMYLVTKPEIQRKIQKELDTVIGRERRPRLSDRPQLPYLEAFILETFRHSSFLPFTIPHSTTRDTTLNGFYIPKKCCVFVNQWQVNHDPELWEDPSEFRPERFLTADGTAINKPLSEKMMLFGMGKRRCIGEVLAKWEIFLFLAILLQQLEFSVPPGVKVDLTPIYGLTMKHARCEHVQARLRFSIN

Cytochrome P450 2C9 = Cytochrome P450 2C9 (Homo sapiens, UniProt P11712)
Chain of Cytochrome P450 2C9 (P11712 whole entry): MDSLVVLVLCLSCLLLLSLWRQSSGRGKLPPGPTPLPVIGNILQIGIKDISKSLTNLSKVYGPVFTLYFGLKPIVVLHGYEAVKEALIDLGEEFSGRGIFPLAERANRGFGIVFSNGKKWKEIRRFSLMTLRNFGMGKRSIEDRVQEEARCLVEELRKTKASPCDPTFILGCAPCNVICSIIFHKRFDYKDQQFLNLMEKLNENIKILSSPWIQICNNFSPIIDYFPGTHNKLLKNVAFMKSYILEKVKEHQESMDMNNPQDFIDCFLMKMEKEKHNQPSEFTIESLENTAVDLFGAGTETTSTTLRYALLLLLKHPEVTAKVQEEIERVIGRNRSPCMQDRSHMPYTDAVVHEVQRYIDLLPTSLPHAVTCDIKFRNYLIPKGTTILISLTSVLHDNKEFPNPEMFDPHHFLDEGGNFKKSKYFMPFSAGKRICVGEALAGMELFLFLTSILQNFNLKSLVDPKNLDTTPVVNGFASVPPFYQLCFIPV

[1] = NIH-3T3 fibroblast cytotoxicity, dose response, cytotoxicity control, cell-based, fluorescence, Alamar Blue, secondary assay (AID 2327); type: functional;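 note: NIH-3T3 mouse fibroblasts cultured with fluconazole at 8 µg/mL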
[2] = fluconazole-exposed Candida albicans growth modulators – fluorescence, retest, confirmation (AID 2467); type: functional, cell-based
Streptococcus = assay: GAS UMAA2166 growth inhibition – luminescence, BacTiterGlo, counter-screen for streptokinase expression inhibitor project, dose response (AID 1915); type: functional, organism-based;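 note: potency for reduction of bacterial viability or growth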
[3] = test system: Streptococcus sp. 'group A'; assay: Streptococcus pyogenes SK(-)GAS viability under kanamycin – luminescence, BacTiterGlo, confirmation, counter-screen for streptokinase expression inhibitor project, dose response (AID 1900); type: functional, organism-based
Streptokinase A = target: T2, Streptokinase A (Streptococcus pyogenes serotype M1, UniProt P10520); assay: viability-normalized secreted streptokinase activity reduction – plasminogen activation absorbance, OD405, dose response (AID 1914); type: functional, Streptococcus pyogenes M1 GAS;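 note: secreted streptokinase activity via plasminogen activation per viability signal from cell pellet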
T2 sequence (P10520 whole entry): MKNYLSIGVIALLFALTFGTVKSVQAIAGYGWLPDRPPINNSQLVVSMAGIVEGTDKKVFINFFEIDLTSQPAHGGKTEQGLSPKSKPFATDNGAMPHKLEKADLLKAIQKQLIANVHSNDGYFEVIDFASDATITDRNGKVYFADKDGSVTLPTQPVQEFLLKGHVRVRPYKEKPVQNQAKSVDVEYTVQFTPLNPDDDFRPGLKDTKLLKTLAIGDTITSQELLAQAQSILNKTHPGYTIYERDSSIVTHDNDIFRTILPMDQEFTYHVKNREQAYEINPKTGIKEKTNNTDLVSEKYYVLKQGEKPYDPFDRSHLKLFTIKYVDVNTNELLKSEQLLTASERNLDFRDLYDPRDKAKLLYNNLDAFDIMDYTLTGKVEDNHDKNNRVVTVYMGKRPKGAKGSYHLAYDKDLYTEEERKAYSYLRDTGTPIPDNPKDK

Protein skinhead-1 = target: T3, Protein skinhead-1 (Caenorhabditis elegans, UniProt P34707); type: functional
T3 sequence (P34707 whole entry): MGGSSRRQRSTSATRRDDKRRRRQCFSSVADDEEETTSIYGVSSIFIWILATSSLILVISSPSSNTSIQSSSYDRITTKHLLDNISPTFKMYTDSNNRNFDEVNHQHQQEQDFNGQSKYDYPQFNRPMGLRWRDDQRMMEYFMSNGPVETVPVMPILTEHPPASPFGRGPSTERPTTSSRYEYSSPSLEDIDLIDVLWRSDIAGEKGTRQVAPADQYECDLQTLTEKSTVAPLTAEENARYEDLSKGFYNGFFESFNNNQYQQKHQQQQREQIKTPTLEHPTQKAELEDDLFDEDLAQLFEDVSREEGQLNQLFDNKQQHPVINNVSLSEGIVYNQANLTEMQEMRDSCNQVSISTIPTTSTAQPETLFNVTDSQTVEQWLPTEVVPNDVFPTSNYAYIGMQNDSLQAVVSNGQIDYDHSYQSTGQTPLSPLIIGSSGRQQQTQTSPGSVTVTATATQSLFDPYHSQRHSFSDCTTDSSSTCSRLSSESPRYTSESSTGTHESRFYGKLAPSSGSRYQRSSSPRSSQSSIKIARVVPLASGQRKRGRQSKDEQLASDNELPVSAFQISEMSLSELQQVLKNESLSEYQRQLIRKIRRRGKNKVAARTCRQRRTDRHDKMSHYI

Cytochrome P450 2D6 = Cytochrome P450 2D6 (Homo sapiens, UniProt P10635);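 note: CYP2D6 member of a cytochrome P450 panel assay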
Chain of Cytochrome P450 2D6 (P10635 whole entry): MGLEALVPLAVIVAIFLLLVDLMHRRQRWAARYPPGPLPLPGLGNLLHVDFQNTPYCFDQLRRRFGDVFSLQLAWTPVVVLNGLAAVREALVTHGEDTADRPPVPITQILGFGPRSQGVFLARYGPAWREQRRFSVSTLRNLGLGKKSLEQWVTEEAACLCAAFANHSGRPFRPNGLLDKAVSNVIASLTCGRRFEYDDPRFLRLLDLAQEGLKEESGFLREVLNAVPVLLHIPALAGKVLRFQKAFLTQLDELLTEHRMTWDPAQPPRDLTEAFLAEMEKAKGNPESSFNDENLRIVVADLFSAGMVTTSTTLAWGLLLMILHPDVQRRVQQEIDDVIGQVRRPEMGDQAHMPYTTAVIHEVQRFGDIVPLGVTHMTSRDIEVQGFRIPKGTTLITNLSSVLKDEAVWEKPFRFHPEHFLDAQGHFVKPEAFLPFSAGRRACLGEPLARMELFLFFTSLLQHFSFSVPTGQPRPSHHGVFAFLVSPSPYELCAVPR

Cytochrome P450 3A4 = Cytochrome P450 3A4 (Homo sapiens, UniProt P08684);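 note: CYP3A4 tested as one member of a cytochrome P450 panel screen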
Chain of Cytochrome P450 3A4 (P08684 whole entry): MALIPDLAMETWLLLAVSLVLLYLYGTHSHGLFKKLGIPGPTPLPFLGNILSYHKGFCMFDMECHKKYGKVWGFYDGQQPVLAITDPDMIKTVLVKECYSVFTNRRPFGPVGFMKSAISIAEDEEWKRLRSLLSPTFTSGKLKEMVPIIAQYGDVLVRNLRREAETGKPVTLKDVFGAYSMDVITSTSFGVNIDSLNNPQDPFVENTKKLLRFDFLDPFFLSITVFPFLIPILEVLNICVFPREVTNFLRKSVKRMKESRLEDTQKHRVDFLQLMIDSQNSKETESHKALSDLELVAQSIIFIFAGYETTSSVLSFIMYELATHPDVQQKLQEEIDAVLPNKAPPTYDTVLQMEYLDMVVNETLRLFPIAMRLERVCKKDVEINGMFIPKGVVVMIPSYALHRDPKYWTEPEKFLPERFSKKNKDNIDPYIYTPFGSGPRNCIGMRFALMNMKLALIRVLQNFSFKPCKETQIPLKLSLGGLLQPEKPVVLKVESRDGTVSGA

[4] = reduction of Shn3 3'UTR-driven luciferase in osteoblasts – cell-based, Clone20 osteoblasts, firefly luciferase, cherry-picked, dose response (AID 624132); type: functional;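 note: firefly luciferase luminescence from reporter carrying the Shn3 3'UTR in osteoblasts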
[5] = loss of viability in HepG2 cells – cell-based, CellTiter-Glo, cherry-picked, cytotoxicity control for Shn3 inhibitor project, dose response (AID 624134); type: functional
[6] = non-specific 3'UTR reporter inhibition in Clone20-Shn3RL – cell-based, Renilla luciferase, cherry-picked, counter-screen for Shn3 inhibitor project, dose response (AID 624133); type: functional
[7] = target: T4, Zinc finger protein mex-5 (Caenorhabditis elegans, UniProt Q9XUB2); assay: potency of MEX-5 RNA-binding blockers – biochemical, C. elegans, fluorescence polarization, dose response (AID 1960)
T4 sequence (Q9XUB2 whole entry): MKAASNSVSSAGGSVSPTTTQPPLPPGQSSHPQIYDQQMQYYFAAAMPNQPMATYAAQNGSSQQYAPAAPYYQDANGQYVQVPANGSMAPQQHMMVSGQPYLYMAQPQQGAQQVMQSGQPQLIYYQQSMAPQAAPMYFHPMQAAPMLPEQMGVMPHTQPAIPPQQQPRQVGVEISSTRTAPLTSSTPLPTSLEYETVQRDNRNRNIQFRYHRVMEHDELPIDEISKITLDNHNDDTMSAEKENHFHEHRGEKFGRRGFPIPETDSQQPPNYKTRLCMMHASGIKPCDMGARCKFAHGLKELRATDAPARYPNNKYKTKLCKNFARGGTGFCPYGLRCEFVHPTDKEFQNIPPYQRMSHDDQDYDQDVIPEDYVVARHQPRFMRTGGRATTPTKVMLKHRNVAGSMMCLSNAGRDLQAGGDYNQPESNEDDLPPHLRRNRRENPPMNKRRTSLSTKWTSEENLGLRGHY

[8] = target: T5, RNA-binding protein pos-1 (Caenorhabditis elegans, UniProt G5EF15); assay: disruptors of C. elegans POS-1 RNA interaction – biochemical, fluorescence polarization, dose response (AID 1964);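 note: purified POS-1 fused to maltose binding protein made in E. coli; potency of compounds blocking POS-1 binding to fluorescent RNA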
T5 sequence (G5EF15 whole entry): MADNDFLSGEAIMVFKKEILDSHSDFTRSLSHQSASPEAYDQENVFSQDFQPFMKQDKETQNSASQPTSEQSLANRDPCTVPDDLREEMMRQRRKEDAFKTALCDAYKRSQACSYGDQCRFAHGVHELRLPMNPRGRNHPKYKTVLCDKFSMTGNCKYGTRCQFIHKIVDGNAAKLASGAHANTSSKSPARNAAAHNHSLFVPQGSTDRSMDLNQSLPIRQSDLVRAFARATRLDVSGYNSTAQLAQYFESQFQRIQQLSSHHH

[9] = microbe, parasite or virus in culture; type: functional; settings: Mycobacterium tuberculosis
[10] = Luminescence Cell-Based Dose Retest to Confirm Inhibitors of Cancer Stem Cells. [Related pubchem assays (depositor defined):AID2717, AID2721]; type: functional; settings: Homo sapiens
INS1 = assay: INS-1E survival protection against cytokine death – cell-based, luminescence, retest, dose response (AID 449756); type: functional; settings: Rattus norvegicus;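 note: cell death triggered by IL-1 beta plus TNF-alpha plus IFN-gamma mixture; protective hits raise ATP signal compared with cytokine alone wells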
H4 = assay: Luminescence Cell-Based Dose Response HTS to Identify Activators of 5'UTR Stem-Loop Driven Prion Protein mRNA Translation in H4 Neuroglioblastoma Cells. [Related pubchem assays: 1829 (Project Summary), 1814 (Primary HTS)]; type: functional; settings: Homo sapiens
[11] = Luminescence Cell-Based Dose Response HTS to Identify Activators of Luciferase Translation or Activity in H4 […] Cells. [Related pubchem assays: 1829 (Project Summary), 1814 (Primary HTS)]; type: functional
Cytochrome P450 2C19 = Cytochrome P450 2C19 (Homo sapiens, UniProt P33261); assay: Cytochrome panel assay with activity outcomes. Panel member name: p450-cyp2c19 Compounds with AC50 equal or less than 10 uM are considered active; type: functional
Chain of Cytochrome P450 2C19 (P33261 whole entry): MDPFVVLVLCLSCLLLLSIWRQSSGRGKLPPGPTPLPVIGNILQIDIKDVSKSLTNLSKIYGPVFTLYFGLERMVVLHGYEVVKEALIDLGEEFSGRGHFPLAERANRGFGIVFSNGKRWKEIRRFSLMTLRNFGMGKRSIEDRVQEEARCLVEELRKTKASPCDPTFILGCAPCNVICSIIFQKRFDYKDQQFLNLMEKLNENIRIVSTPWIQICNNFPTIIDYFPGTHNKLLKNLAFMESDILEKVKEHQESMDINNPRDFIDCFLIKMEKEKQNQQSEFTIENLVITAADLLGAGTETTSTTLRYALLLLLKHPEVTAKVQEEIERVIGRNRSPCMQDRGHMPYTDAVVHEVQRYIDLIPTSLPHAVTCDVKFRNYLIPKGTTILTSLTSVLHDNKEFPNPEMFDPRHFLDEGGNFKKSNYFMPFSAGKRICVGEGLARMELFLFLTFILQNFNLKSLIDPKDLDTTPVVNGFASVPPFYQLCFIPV

[12] = viability of PTEN-deleted HCT116 cells – cell-based, HCT116 PTEN knockout, dose response (AID 1047); type: functional;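 note: HCT116 colon tumor cells with PTEN knocked out; cells exposed to compound for 60 hours before readout; potency for loss of cell viability measured by luminescence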
[13] = viability of HCT116 lacking mutant beta-catenin – cell-based, human colon tumor, dose response (AID 1045); type: functional;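 note: HCT116 colon tumor cells with beta catenin knocked out; cells exposed to compound for 60 hours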

O=C(NCc1ccccn1)C1CC(c2ccc(Cl)c(Cl)c2)=NO1 (centres undefined)
AC50 (Cytochrome P450 1A2): 4.47 µM (inconclusive)
AC50 (Cytochrome P450 2C9): inconclusive

Cc1nnc(NC(=O)c2ccc(S(=O)(=O)N(C)Cc3ccccc3)cc2)o1
EC50 [1]: 21.7 µM (active)
EC50 [2]: 2.21 µM (active)
EC50 (Streptococcus): 17 µM (active)
EC50 [3]: 4.98 µM (active)
EC50 (Streptokinase A): > 150 µM (not active)

Cc1ccc(C2=NN(S(C)(=O)=O)C(c3ccc4c(c3)OCO4)C2)cc1 (centres undefined)
IC50 (Protein skinhead-1): > 100 µM (inactive)

CN(C)c1ccc(/C=C(\C#N)C(=O)Nc2nc3c(s2)CCN(Cc2ccccc2)C3)cc1
IC50 (Protein skinhead-1): > 100 µM (inactive)

O[C@@H](c1cc(C(F)(F)F)nc2c(Cl)cc(Cl)cc12)[C@@H]1CCCCN1
AC50 (Cytochrome P450 2D6): 3.16 µM (inconclusive)

Cc1cc2cc(CNC(=O)CCC(=O)O)ccc2n1C
IC50 (Protein skinhead-1): > 100 µM (inactive)

CCN(CC)C(=O)C1CCN(S(=O)(=O)c2ccc3oc4ccccc4c3c2)CC1
AC50 (Cytochrome P450 3A4): 3.98 µM (inconclusive)
AC50 [4]: 3.96 µM (active)
AC50 [5]: > 70 µM (inactive)
AC50 (Cytochrome P450 2C9): inconclusive
AC50 [6]: 10.1 µM (active)

COc1ccc(OC)c(S(=O)(=O)N2CCC(C(=O)Nc3ccc(C)c(C)c3)CC2)c1
AC50 (Cytochrome P450 1A2): 12.6 µM (inconclusive)
AC50 (Cytochrome P450 2C9): inconclusive

COc1cccc(C(=O)NCC(=O)NNc2ncnc(N)c2[N+](=O)[O-])c1
EC50 [7]: < 0.06 µM (inconclusive)
EC50 [8]: > 300 µM (inconclusive)

CCCNC(=O)COC(=O)C1CCN(S(=O)(=O)c2ccc3c(c2)OCCO3)CC1
IC50 (Protein skinhead-1): > 100 µM (inactive)

Cc1ccc2c(c1)C(c1ccc(N3CCOCC3)cc1)=NNC(c1cccs1)=N2
CC50 [9]: 38.6 µM (active)

Cc1oncc1-c1csc(-c2ccccc2Cl)n1
IC50 (Protein skinhead-1): > 100 µM (inactive)

O=C(CSc1nc2cc(Br)c[nH]c-2n1)Nc1ccc2c(c1)OCO2
CC50 [9]: > 40 µM (active)

Cc1ccc(-c2c(C)nn3c(N4CCOCC4)cc(C)nc23)cc1
IC50 (Protein skinhead-1): > 100 µM (inactive)

CS(=O)(=O)N1CCC2(CCN(c3ccncc3)CC2)CC1
AC50 (Cytochrome P450 2D6): 25.1 µM (inconclusive)

Cc1ccc(NC(=O)/C(C#N)=C/c2ccc(C)s2)c(C)c1
EC50 [7]: 9.25 µM (active)
EC50 [8]: 64.2 µM (inconclusive)

CC(C)(C)C1CCc2sc(-c3nnc(CCl)o3)cc2C1 (centres undefined)
CC50 [9]: 21 µM (active)

CN(C)c1ccc(-c2cc(O)c3ncccc3c2)cc1
AC50 [10]: 7.11 µM (active)
CC50 [9]: 23.2 µM (active)
AC50 (INS1): 5.16 µM (active)

c1csc(CSc2nc3ccccc3s2)c1
EC50 (H4): 36.9 µM (active)
EC50 [11]: 1.12 µM (active)
IC50 (Protein skinhead-1): 27.5 µM (active)

Nc1c(NCCC2=CCCCC2)c(=O)[nH]c(=O)n1Cc1ccccc1
EC50 [7]: 13.9 µM (active)
EC50 [8]: 23.2 µM (active)

NS(=O)(=O)c1ccc(NC(S)=NNC(=O)CCC(=O)Nc2ccccc2Cl)cc1
EC50 [7]: 12.2 µM (active)
EC50 [8]: 13 µM (inconclusive)

CSC(=Nc1ccc(F)c(Cl)c1)NS(=O)(=O)c1cccs1
EC50 [1]: > 150 µM (inactive)
EC50 [2]: 0.805 µM (active)

CCN(CCO)C[C@H]1CCC[C@H]2CCCC[C@@H]21
AC50 (Cytochrome P450 2D6): 6.31 µM (inconclusive)

O=C(CCN1C(=O)/C(=C\C=C\c2ccccc2)SC1=S)Nc1ccc(C(=O)O)cc1
EC50 [7]: 38.7 µM (active)
EC50 [8]: > 300 µM (not active)

Cc1nn(-c2ccccc2)c(N)c1C(c1ccc(C(C)C)cc1)c1c(C)nn(-c2ccccc2)c1N
CC50 [9]: > 40 µM (active)

O=C(NNC(=O)c1cnccn1)c1ccc(Cl)cc1
EC50 [7]: 12.4 µM (active)
EC50 [8]: 95.9 µM (active)

c1ccc(Cn2nnc3c(NCCN4CCOCC4)ncnc32)cc1
IC50 (Protein skinhead-1): > 100 µM (inactive)

O=C(NCc1ccco1)c1sc2cc(F)ccc2c1Cl
IC50 (Protein skinhead-1): > 100 µM (inactive)

CCN=C(S)N1CCC(NC(=O)C2CCCCC2)CC1
AC50 (Cytochrome P450 2C19): inconclusive
AC50 (Cytochrome P450 2C9): inconclusive

CC(C)Cn1c(N)c(C(=O)CSc2nnnn2C)c(=O)n(C)c1=O
IC50 (Protein skinhead-1): > 100 µM (inactive)

CCn1nnc2sc3c(c2c1=O)CCC(C)C3 (centres undefined)
IC50 (Protein skinhead-1): > 100 µM (inactive)

CCOc1cc(CNCCSc2nnnn2C)cc(Br)c1OCc1ccc(F)cc1
IC50 (Protein skinhead-1): 6.7 µM (active)

CC1(C)CC(=O)C=C(Nc2ccc([N+](=O)[O-])cc2)C1
EC50 [1]: > 160 µM (inactive)
EC50 [2]: 2.93 µM (active)

CCOc1ccc(/C=N/Nc2nc(N3CCCC3)nc(N3CCCC3)n2)cc1OC
AC50 (Cytochrome P450 2C19; read-out: AC50): 39.8 µM (inconclusive)
AC50 (Cytochrome P450 1A2): 39.8 µM (inconclusive)
AC50 (Cytochrome P450 2C9): inconclusive

CCN(CC)c1ccc(/C=N/Nc2nc3ccccc3[nH]2)cc1
EC50 [1]: 6.64 µM (active)
EC50 [2]: > 38 µM (not active)
EC50 [12]: 2.96 µM (active)
EC50 [13]: 2.76 µM (active)

CO/N=C/C(=C\Nc1ccc(Cl)cc1Cl)c1ncc(C(F)(F)F)cc1Cl
EC50 [1]: > 160 µM (inconclusive)
